Source: ChEMBL document CHEMBL1201862, “PubChem BioAssay data set” (2004)
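Following 48 hours of exposure in 96-well plates, responses at five concentrations were used to interpolate endpoints linearly. GI50 marks 50% less growth.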 Calls of active or inactive are those of the source. Rule as the data show it: active = GI50 up to about 1.1 µM and inactive = higher.

Tests used:
Experiment in all cases: NCI-60 cell line screen, 48 h
SR = tested on: SR
SF-295 = tested on: SF-295
HT-29 = tested on: HT-29
HCT-116 = tested on: HCT-116
SNB-75 = tested on: SNB-75
COLO 205 = tested on: COLO 205
TK-10 = tested on: TK-10
OVCAR-4 = tested on: OVCAR-4
UACC-257 = tested on: UACC-257
SF-539 = tested on: SF-539
SW-620 = tested on: SW-620
MOLT-4 = tested on: MOLT-4
KM12 = tested on: KM12
HOP-92 = tested on: HOP-92
OVCAR-5 = tested on: OVCAR-5
A549 = tested on: A549
SK-MEL-5 = tested on: SK-MEL-5
ACHN = tested on: ACHN
CCRF-CEM = tested on: CCRF-CEM
NCI-H522 = tested on: NCI-H522

Row | Compound | GI50 (SR) | GI50 (SF-295) | GI50 (HT-29) | GI50 (HCT-116) | GI50 (SNB-75) | GI50 (COLO 205) | GI50 (TK-10) | GI50 (OVCAR-4) | GI50 (UACC-257) | GI50 (SF-539) | GI50 (SW-620) | GI50 (MOLT-4) | GI50 (KM12) | GI50 (HOP-92) | GI50 (OVCAR-5) | GI50 (A549) | GI50 (SK-MEL-5) | GI50 (ACHN) | GI50 (CCRF-CEM) | GI50 (NCI-H522)
1 | O=C(O)c1ccc(O)c(/N=N/c2cc(S(=O)(=O)O)c3ccccc3c2O)c1 | > 100 µM (inactive) | > 10 µM (inactive) | 50.7 µM (inactive) | 20 µM (inactive) | > 100 µM (inactive) | 39.8 µM (inactive) | > 100 µM (inactive) | > 100 µM (inactive) | > 10 µM (inactive) | > 10 µM (inactive) | > 100 µM (inactive) | > 100 µM (inactive) | > 100 µM (inactive) | > 100 µM (inactive) | > 100 µM (inactive) | > 100 µM (inactive) | > 100 µM (inactive) | > 100 µM (inactive) |  | 
2 | O=C(CC1(O)C(=O)Nc2ccc(Br)cc21)c1ccc(Cl)cc1Cl (centres undefined) | 23.7 µM (inactive) | 64.7 µM (inactive) | 38.3 µM (inactive) | 31.8 µM (inactive) | 38 µM (inactive) | 65.5 µM (inactive) | 56.2 µM (inactive) | 36.1 µM (inactive) | 30.9 µM (inactive) | 45.5 µM (inactive) | 37.1 µM (inactive) | 26.3 µM (inactive) | 52.6 µM (inactive) |  | > 100 µM (inactive) | 92 µM (inactive) |  | 60.1 µM (inactive) | 20.2 µM (inactive) | 25.1 µM (inactive)
3 | O=C(OCCN=C1c2ccccc2CCc2ccccc21)c1cc([N+](=O)[O-])cc([N+](=O)[O-])c1 | 3.52 µM (inactive) | 23.6 µM (inactive) | > 31.6 µM (inactive) | > 31.6 µM (inactive) | > 100 µM (inactive) | > 31.6 µM (inactive) | > 31.6 µM (inactive) | 78.2 µM (inactive) | > 31.6 µM (inactive) | > 31.6 µM (inactive) | > 31.6 µM (inactive) | 4.22 µM (inactive) | 28.1 µM (inactive) | > 31.6 µM (inactive) | > 31.6 µM (inactive) | 26.7 µM (inactive) | 27.2 µM (inactive) | > 31.6 µM (inactive) | 74.6 µM (inactive) | 
4 | CC(=O)CC(=O)ON(C)C(C)=O | > 100 µM (inactive) | > 100 µM (inactive) | > 100 µM (inactive) | > 100 µM (inactive) | > 100 µM (inactive) | > 100 µM (inactive) | > 100 µM (inactive) | 29.2 µM (inactive) | 7.69 µM (inactive) | > 100 µM (inactive) | > 100 µM (inactive) | > 100 µM (inactive) | > 100 µM (inactive) |  | > 100 µM (inactive) | > 100 µM (inactive) | > 100 µM (inactive) | > 100 µM (inactive) | > 100 µM (inactive) | > 100 µM (inactive)
5 | C[C@]12C(=O)OC[C@H](c3ccccc3)N1C(=O)N(Cc1ccccc1)[C@@H]2CO | > 100 µM (inactive) | > 100 µM (inactive) | > 100 µM (inactive) | > 100 µM (inactive) | 45.6 µM (inactive) | > 100 µM (inactive) | > 100 µM (inactive) | > 100 µM (inactive) | > 100 µM (inactive) | > 100 µM (inactive) | > 100 µM (inactive) | > 100 µM (inactive) | > 100 µM (inactive) | > 100 µM (inactive) | > 100 µM (inactive) | > 100 µM (inactive) | > 100 µM (inactive) | > 100 µM (inactive) | > 100 µM (inactive) | 
6 | COc1ccc2cc3nc(O)cc(O)c3cc2c1OC | > 100 µM (inactive) | > 100 µM (inactive) | > 100 µM (inactive) | > 100 µM (inactive) | > 100 µM (inactive) |  | > 100 µM (inactive) | > 100 µM (inactive) | > 100 µM (inactive) | > 100 µM (inactive) | > 100 µM (inactive) | > 100 µM (inactive) | > 100 µM (inactive) | > 100 µM (inactive) | > 100 µM (inactive) | > 100 µM (inactive) |  | > 100 µM (inactive) | > 100 µM (inactive) | 
7 | Nc1ncnc2c1ncn2C1C=CC(COS(N)(=O)=O)C1 (centres undefined) | 8.55 µM (inactive) | 40.9 µM (inactive) | 14.9 µM (inactive) | 9.38 µM (inactive) | 21.9 µM (inactive) | 16.9 µM (inactive) | > 100 µM (inactive) | 34.3 µM (inactive) | 63.5 µM (inactive) | 0.676 µM (active) | 12.9 µM (inactive) | 7.85 µM (inactive) | 19.2 µM (inactive) | 15.7 µM (inactive) | 64.1 µM (inactive) | 36.2 µM (inactive) | 30.4 µM (inactive) | 23.9 µM (inactive) | 18.4 µM (inactive) | 
8 | Cc1nnc2n1-c1ccccc1-c1[nH]c3ccccc3c1C2 | 22.8 µM (inactive) | 56.1 µM (inactive) | 68.2 µM (inactive) | 54.8 µM (inactive) | 8.24 µM (inactive) | 45 µM (inactive) | > 100 µM (inactive) | 45.2 µM (inactive) | 59.8 µM (inactive) | > 100 µM (inactive) | > 100 µM (inactive) | 45 µM (inactive) | 94.4 µM (inactive) | 93.8 µM (inactive) | > 100 µM (inactive) | 91 µM (inactive) | 26.2 µM (inactive) | 39.9 µM (inactive) | 53.8 µM (inactive) | 
9 | Nc1ncnc2ccc(Sc3ccc4ncnc(N)c4c3)cc12 | > 100 µM (inactive) | > 100 µM (inactive) | > 100 µM (inactive) | > 100 µM (inactive) | > 100 µM (inactive) | > 100 µM (inactive) | > 100 µM (inactive) | > 100 µM (inactive) | > 100 µM (inactive) | > 100 µM (inactive) | > 100 µM (inactive) | > 100 µM (inactive) | > 100 µM (inactive) | 71.3 µM (inactive) | > 100 µM (inactive) | > 100 µM (inactive) | > 100 µM (inactive) | > 100 µM (inactive) | > 100 µM (inactive) | 
10 | COc1ccc(C2=NNC(=O)OC2c2ccccc2)cc1 (centres undefined) | 55.2 µM (inactive) | 22.4 µM (inactive) | 38 µM (inactive) | > 100 µM (inactive) | 28.1 µM (inactive) | 78.2 µM (inactive) | > 100 µM (inactive) | > 100 µM (inactive) | 28.9 µM (inactive) | > 100 µM (inactive) | 38.9 µM (inactive) | 43.8 µM (inactive) | 40.9 µM (inactive) | 43.6 µM (inactive) | > 100 µM (inactive) | 51.5 µM (inactive) |  | > 100 µM (inactive) | 48.3 µM (inactive) | 
11 | C/C(=N\NS(=O)(=O)c1ccccc1)c1ccc(Cl)c(Cl)c1 | 62.2 µM (inactive) | 46.3 µM (inactive) | 44.7 µM (inactive) | 50.9 µM (inactive) | 50 µM (inactive) | 26.2 µM (inactive) | 50.1 µM (inactive) | 58.9 µM (inactive) | 50 µM (inactive) | 43 µM (inactive) | > 100 µM (inactive) | 47.8 µM (inactive) | 71.1 µM (inactive) | 67 µM (inactive) | > 100 µM (inactive) | 46.2 µM (inactive) | 42.5 µM (inactive) | 46.6 µM (inactive) | > 100 µM (inactive) | 
12 | CC(=O)Nc1ccc2c(c1)[nH]c(=O)c1cc(Cl)ccc12 | 3.2 µM (inactive) | 35.1 µM (inactive) | 15.4 µM (inactive) | 17.4 µM (inactive) | 52.4 µM (inactive) | 47.2 µM (inactive) | 15.2 µM (inactive) | 34.1 µM (inactive) | 20.3 µM (inactive) | 40.1 µM (inactive) | 27.7 µM (inactive) | 2.23 µM (inactive) | 26.5 µM (inactive) |  | 27 µM (inactive) | 5.61 µM (inactive) | 15.9 µM (inactive) | 23.9 µM (inactive) | 0.341 µM (active) | 27.1 µM (inactive)
13 | Nc1ccc(C(=O)/C=C/c2ccccc2O)cc1 | > 100 µM (inactive) | > 100 µM (inactive) | > 100 µM (inactive) | > 100 µM (inactive) | > 100 µM (inactive) | > 100 µM (inactive) | > 100 µM (inactive) | > 100 µM (inactive) | > 100 µM (inactive) | > 100 µM (inactive) | > 100 µM (inactive) | > 100 µM (inactive) | > 100 µM (inactive) |  | > 100 µM (inactive) | > 100 µM (inactive) | > 100 µM (inactive) | > 100 µM (inactive) | > 100 µM (inactive) | > 100 µM (inactive)
14 | CCCSS[C@H]1NC(=O)[C@H]1NC(=O)COc1ccccc1 | 3.16 µM (inactive) | 41.9 µM (inactive) | 19.8 µM (inactive) | 10.3 µM (inactive) | 21.1 µM (inactive) | 12.3 µM (inactive) | 27.9 µM (inactive) | 17.3 µM (inactive) | 14.4 µM (inactive) | 15.3 µM (inactive) | 5.74 µM (inactive) | 1.28 µM (inactive) | 17.2 µM (inactive) | 10.4 µM (inactive) | 59 µM (inactive) | 24.4 µM (inactive) | 22.8 µM (inactive) | 16.6 µM (inactive) | 3.85 µM (inactive) | 
15 | O=CC(NC(=O)N(CCCl)N=O)C(O)C(O)C(O)CO (centres undefined) | 78.7 µM (inactive) | 81.7 µM (inactive) | > 1250 µM (inactive) |  | 262 µM (inactive) | > 1250 µM (inactive) | > 1250 µM (inactive) | > 449 µM (inactive) | 1050 µM (inactive) | 119 µM (inactive) | 832 µM (inactive) | 159 µM (inactive) | > 1250 µM (inactive) |  | 1140 µM (inactive) | 753 µM (inactive) | 425 µM (inactive) | 346 µM (inactive) | 348 µM (inactive) | 1160 µM (inactive)
